Laboratory results reported in US4454341A, “Naphthyl or tetrahydronaphthyl-substituted naphthoic acid and derivatives” (SRI International, priority 1983, dated 1984).

What was measured:
[1] = tested on: Hamster Tracheal Organ Culture (keratinization); assay: Tracheal organ culture assay (reversal of keratinization); type: cell-based; details: 10 days in culture
Protocol: (§1) The ODC assay measures a compound's ability to prevent the induction of ODC. The tracheal organ culture assay measures a compound's ability to reverse keratinization.
The tracheal organ culture assay is carried out as follows. Tracheas are taken from hamsters that are in very early stages of vitamin A deficiency and placed in organ culture. At the time of culture, the animals are still gaining weight; the tracheal epithelium is generally low columnar or cuboidal, with only occasional patches of squamous metaplasia. Each trachea is opened from the larynxto the carina along the membranous dorsal wall and cultured in a serum-free medium (CMRL-1066; with crystalline bovine insulin, 0.1 μg/ml; hydrocortisone hemisuccinate, 0.1 μg/ml; glutamine, 2 mM; penicillin, 100 units/ml; and streptomycin, 100 μg/ml, added). Cultures are gassed with 50% oxygen, 45% nitrogen, and 5% CO2. The culture dishes are rocked at 35.5-36.0 degrees to allow the tracheas contact with both gas and medium. All tracheas are grown in medium containing no retinoid for the first 3 days. At the end of 3 days, some tracheas are harvested; almost all of these tracheas have significant squamous metaplasia, and approximately 60% have keratinized lesions. The remaining tracheas are then divided into different groups which are treated with either: (1) retinoid dissolved in dimethylsulfoxide (final concentration of DMSO in culture medium is never greater than 0.1%) or (2) an equivalent amount of DMSO alone. Culture medium is changed three times a week, and all of the remaining tracheas are harvested at the end of 10 days in culture. Tracheas are fixed in 10% buffered formalin and embedded in paraffin. Cross sections of five micrometers are made through the mid-portion, stained with hematoxylin and eosin, and then scored with a microscope for the presence of keratin and keratohyaline granules, both of which are found in approximately 90% of control cultures that received no retinoid for the entire 10 day culture period.

[2] = tested on: Ornithine Decarboxylase; assay: Ornithine decarboxylase (ODC) assay: inhibition of TPA induction of ODC in mouse skin; type: in vivo, mouse (female Charles River CD-1); details: topical, 1 hour before TPA (17 nmol)
Protocol: as §1
The ODC assay is carried out as follows. Female Charles River CD-1 mice from Charles River Breeding Laboratories, Wilmington, Mass., are used (age 7 to 9 weeks). The dorsal hair of the mice is shaved 1 to 2 days before testing, and only mice showing no hair regrowth are used. A single dose of 12-O-tetradecanoylphorbol-13-acetate (TPA) (10.5 μg, 17 nmol) in 0.2 mL of acetone is applied topically to the back of each mouse. The test compound, at one of three dose levels (1.7, 17 and 170 nmol), dissolved in 0.2 mL of acetone is applied 1 hour before the TPA treatment to the test groups; the control group is treated with acetone alone. The mice are killed by cervical dislocations five hours after TPA treatment. Determinations are done in triplicate.
The epidermis is obtained from the sacrificed animals. To obtain sufficient material, the dorsal skins from 2 to 3 mice in each treatment group are pooled. The depilatory agent Nudit® (Helena Rubinstein, N.Y.) is applied to the shaved area of the skin; after 5 minutes, it is washed off thoroughly with cold tap water. Then the skin is excised and plunged immediately into ice-cold water; it is then placed in a 55° C. water bath for 30 seconds and reimmersed in ice-cold water for at least another 30 seconds. The skin is placed epidermis side up on a cold plate, and the epidermis is scraped off with a razor blade. The pooled epidermal sheets are homogenized (Polytron PT-10 homogenizer) at 0° to 4° C. for 15-20 seconds in 50 mM sodium phosphate and 0.1 mM ethylenediaminetetraacetic acid (EDTA), at a volume of 1 mL/skin.
The supernatant fraction remaining after centrifugation of the homogenate at 10,000×g for 30 seconds at 0° C. is used for the enzyme assay. Enzyme activity is determined using the microassay for ODC as described by Verma and Boutwell to measure the release of ^14 CO2 from DL-[1-^14 C]-ornithine (58 mCi/mmol) after incubation with the 10,000×g supernatant. The incubations are carried out by decanting, with a Pasteur pipette, 100 μL of the supernatant containing 100 to 120 μg of protein into two or three 15-mL Corex tubes in a shaking water bath at 37° C. The assay mixture in the tubes consists of 50 μL of 100 mM sodium phosphate buffer (pH 7.2), 10 μL of 4 mM pyridoxal phosphate, 40 μL of 25 mM dithiothreitol, and 1 μL of 0.1 M EDTA. The center wells in the tubes are filled with 200 μL of a 2:1 solution (v/v) of ethanolamine:2-methoxyethanol. The reaction is started by adding 50 μL of substrate (0.5 μCi of DL-[1-^14 C]-ornithine in 2 mM cold ornithine) at 1-minute intervals by injection to each of the stoppered tubes. Incubations are routinely carried out at 37° C. for 30 to 60 minutes. The reaction is stopped by addition of 0.5 ml of 2M citric acid, and incubation is continued for an additional hour without heating to ensure complete absorption of ^14 CO2.
Radioactivity is measured using a toluene-based scintillant (4 g of PPO and 50 mg of POPOP/L of toluene) in a Beckman LS-250 liquid scintillation counter. Enzyme activity is determined in triplicate and expressed as nanomoles of CO2 released in 30 minutes per milligram of protein. Enzyme activity is linear for the protein concentration used. The protein concentrations of the epidermal extracts are determined by the Lowry procedure, using bovine serum albumin as the standard.

[3] = tested on: ornithine decarboxylase (ODC); details: literature, copending application or unpublished data; cited from earlier work

Row | Compound | Reversal of Keratinization in Hamster Tracheal Organ Culture, Active Cultures (%) ([1]; Conc 10^-9 M) | Reversal of Keratinization in Hamster Tracheal Organ Culture, Active/Total Cultures ([1]; Conc 10^-9 M) | Reversal of Keratinization in Hamster Tracheal Organ Culture, Active Cultures (%) ([1]; Conc 10^-10 M) | Reversal of Keratinization in Hamster Tracheal Organ Culture, Active/Total Cultures ([1]; Conc 10^-10 M) | Reversal of Keratinization in Hamster Tracheal Organ Culture, Active Cultures (%) ([1]; Conc 10^-11 M) | Reversal of Keratinization in Hamster Tracheal Organ Culture, Active/Total Cultures ([1]; Conc 10^-11 M) | Inhibition of Induction of Ornithine Decarboxylase by 12-O-Tetradecanoylphorbol-13-acetate in Mouse Skin, % Inhibition of Control ([2]; Dose 1.7 nmol) [%] | Inhibition of Induction of Ornithine Decarboxylase by 12-O-Tetradecanoylphorbol-13-acetate in Mouse Skin, % Inhibition of Control ([2]; Dose 17 nmol) | activity in the ODC assay (in words) [3] | Reversal of Keratinization in Hamster Tracheal Organ Culture, Active Cultures (%) ([1]; Conc 10^-8 M) | Reversal of Keratinization in Hamster Tracheal Organ Culture, Active/Total Cultures ([1]; Conc 10^-8 M)
1 | CC1(C)CCC(C)(C)c2cc(-c3ccc4cc(C(=O)O)ccc4c3)ccc21 [6-(1,2,3,4-Tetrahydro-1,1,4,4-tetramethyl-6-naphthyl)-2-naphthoic acid] | 100 | 7/7 | 100 | 7/7 | 71 | 5/7 | 56 | 80% | – | – | –
2 | CC1=C(C=Cc2ccc3cc(C(=O)O)ccc3c2)C(C)(C)CCC1 [6-[2-(2,6,6-trimethyl-1-cyclohexen-1-yl)ethenyl]-2-naphthoic acid] | – | – | – | – | – | – | – | – | exhibited activity in the ODC assay | – | –
3 | CCOC(=O)c1ccc(/C=C(\C)c2ccc3c(c2)C(C)(C)CCC3(C)C)cc1 [Ethyl 4-[(E)-2-(1,2,3,4-tetrahydro-1,1,4,4-tetramethyl-6-naphthyl)-1-propen-1-yl]benzoate] | – | – | – | – | – | – | 86 | 86% | exhibits activity in the ODC assay | – | –
4 | CCOC(=O)c1ccc2cc(-c3ccc4c(c3)C(C)(C)CCC4(C)C)ccc2c1 [Ethyl 6-(1,2,3,4-tetrahydro-1,1,4,4-tetramethyl-6-naphthyl)-2-naphthoate] | – | – | – | – | – | – | 50 | 75% | – | – | –
5 | CC1=C(/C=C/C(C)=C/C=C/C(C)=C/C(=O)O)C(C)(C)CCC1 [Retinoic Acid] | 88 | 419/474 | 52 | 134/256 | – | – | – | 87-91% | – | 100 | 236/236
